Measurements reported in patent publication US12371454B2, “Cyclic peptide compound having Kras inhibitory action” (priority 2019, dated 2025).
Starred links: 1 amine or outer side, 2 acyl side, 3 side chain; linkers in the order of their positions; H or OH if unused. Positions of bridges follow the written chain, without caps; N, C: chain ends. Non-standard residues stand in square brackets, D forms with d. Residues, ends and D or L forms follow the SMILES beside them. *: point of attachment. hPhe(3-Cl-4-CF3) = N[C@@H](CCc1ccc(C(F)(F)F)c(Cl)c1)C(=O)O; NMePhe(4-Me) = CN[C@@H](Cc1ccc(C)cc1)C(=O)O; NMedβ3hAla = C[C@H](CC(=O)[*:2])N(C)[*:1]; NMeCha = CN[C@@H](CC1CCCCC1)C(=O)O; NMeGly(cPr) = CN[C@H](C(=O)O)C1CC1; NMeChg = CN[C@H](C(=O)O)C1CCCCC1; NMeI = CC[C@H](C)[C@H](NC)C(=O)O; NMeD = CN[C@@H](CC(=O)O)C(=O)O; NMeL = CN[C@@H](CC(C)C)C(=O)O; NMeV = CN[C@H](C(=O)O)C(C)C; d(β3hA) = C[C@@H](N)CC(=O)O; NMeS = CN[C@@H](CO)C(=O)O; NMeA = CN[C@@H](C)C(=O)O; Piperidide = C1CCN(*)CC1; Pyrrolidide = C1CCN(*)C1; dNMeA = CN[C@H](C)C(=O)O; Ac5c = NC1(C(=O)O)CCCC1; Aze = O=C(O)[C@@H]1CCN1; Cyclopropyl = C1CC1*; Sar = CNCC(=O)O

Tests used:
[1] = molecular target: T1, Kras and SOS1 (biotin-tagged human Kras loaded with GDP, His-tagged human SOS1) (Homo sapiens, UniProt P01116, G12D); assay: Protein-protein interaction inhibition between Kras and SOS1 (KrasGl2D-SOS PPI) using AlphaScreen; type: binding; conditions: AlphaScreen; biotin-tagged human Kras loaded with GDP, His-tagged human SOS1; read-out: KRAS G12D-SOS PPI IC50
T1 construct: made in house; host or cells: E. coli (stated for Kras only)
T1 sequence (P01116 1-188 isoform P01116-2 G12D): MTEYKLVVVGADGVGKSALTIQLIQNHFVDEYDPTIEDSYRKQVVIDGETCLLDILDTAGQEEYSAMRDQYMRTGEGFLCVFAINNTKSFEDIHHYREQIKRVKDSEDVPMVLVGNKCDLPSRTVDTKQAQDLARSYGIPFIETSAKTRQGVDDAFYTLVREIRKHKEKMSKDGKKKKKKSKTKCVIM
Procedure, shortened: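 Binding between SOS1 and Kras is detected as bead-proximity luminescence: illuminate Ni-conjugated donors (680 nm), collect 520-620 nm emission from streptavidin-conjugated acceptors; Kras carries biotin and GDP loaded after purification, SOS1 carries a His tag.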

[2] = tested on: Human pancreatic cancer cell line AsPC-1; assay: Measurement of AsPC-1 cell growth inhibition (AsPC-1 CGI); type: cell-based; conditions: 96 h
Procedure, shortened: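 AsPC-1 cells in 15% FBS RPMI-1640 were exposed to test compound for 96 hours at 37° C, with CellTiter-Glo as endpoint.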

SMILES | IC50 [1] [nM] | IC50 [2] [nM]
CC[C@H](C)[C@@H]1NC(=O)[C@H](CC(C)C)N(C)C(=O)C[C@@H](C)NC(=O)[C@H]([C@@H](C)CC)N(C)C(=O)C2(CCCC2)NC(=O)[C@@H]2CCCN2C(=O)[C@H](CCc2ccc(C(F)(F)F)c(Cl)c2)NC(=O)CN(C)C(=O)[C@H](Cc2ccc(C)cc2)N(C)C(=O)CN(C)C(=O)CN(C)C1=O [Compound 1774] (cyclo([Ac5c][NMeI][d(β3hA)][NMeL]I[Sar][Sar][NMePhe(4-Me)][Sar][hPhe(3-Cl-4-CF3)]P)) | 0.84 | 100 to 500
CC[C@H](C)[C@@H]1NC(=O)[C@H](C)N(C)C(=O)C[C@@H](C)N(C)C(=O)[C@H](C(C)C)N(C)C(=O)C2(CCCC2)NC(=O)[C@@H]2CCCN2C(=O)[C@H](CCc2ccc(C(F)(F)F)c(Cl)c2)NC(=O)[C@@H](C)N(C)C(=O)[C@H](CC2CCCCC2)N(C)C(=O)[C@@H]2CCCN2C(=O)CN(C)C1=O [Compound 1784] (cyclo([Ac5c][NMeV][NMedβ3hAla][NMeA]I[Sar]P[NMeCha][dNMeA][hPhe(3-Cl-4-CF3)]P)) | 11 | 50 to 100
CC[C@H](C)[C@@H]1NC(=O)[C@H](COC2CC2)N(C)C(=O)C[C@@H](C(=O)N2CCCCC2)N(C)C(=O)[C@H](C2CCCCC2)N(C)C(=O)C2(CCCC2)NC(=O)[C@@H]2CCCN2C(=O)[C@H](CCc2ccc(C(F)(F)F)c(Cl)c2)NC(=O)CN(C)C(=O)[C@H](CC2CCCCC2)N(C)C(=O)CN(C)C(=O)CN(C)C1=O [Compound 1786] ([NMeS](Cyclopropyl)I[Sar][Sar][NMeCha][Sar][hPhe(3-Cl-4-CF3)]P[Ac5c][NMeChg][NMeD]-Piperidide; lactam N-11) | 0.72 | 50 to 100
CC[C@H](C)[C@@H]1NC(=O)[C@H](CC(C)C)N(C)C(=O)C[C@@H](C(=O)N2CCCC2)N(C)C(=O)[C@H]([C@@H](C)CC)N(C)C(=O)C2(CCCC2)NC(=O)[C@@H]2CCCN2C(=O)[C@H](CCc2ccc(C(F)(F)F)c(Cl)c2)NC(=O)CN(C)C(=O)[C@H](Cc2ccc(C)cc2)N(C)C(=O)CN(C)C(=O)CN(C)C1=O [Compound 1790] ([NMeL]I[Sar][Sar][NMePhe(4-Me)][Sar][hPhe(3-Cl-4-CF3)]P[Ac5c][NMeI][NMeD]-Pyrrolidide; lactam N-11) | 0.7 | 20 to 50
CC[C@H](C)[C@@H]1NC(=O)[C@H](C2CC2)N(C)C(=O)C[C@@H](C(=O)N2CCCCC2)N(C)C(=O)[C@H](C2CCCCC2)N(C)C(=O)C2(CCCC2)NC(=O)[C@@H]2CCCN2C(=O)[C@H](CCc2ccc(C(F)(F)F)c(Cl)c2)NC(=O)CN(C)C(=O)[C@H](CC2CCCCC2)N(C)C(=O)CN(C)C(=O)CN(C)C1=O [Compound 1796] ([NMeGly(cPr)]I[Sar][Sar][NMeCha][Sar][hPhe(3-Cl-4-CF3)]P[Ac5c][NMeChg][NMeD]-Piperidide; lactam N-11) | 0.76 | 100 to 500
CC(C)C[C@H]1C(=O)N[C@@H](C(C)C)C(=O)N(C)CC(=O)N(C)CC(=O)N(C)[C@@H](CC2CCCCC2)C(=O)N(C)CC(=O)N[C@@H](CCc2ccc(C(F)(F)F)c(Cl)c2)C(=O)N2CCC[C@H]2C(=O)NC2(CCCC2)C(=O)N(C)[C@@H](C2CCCCC2)C(=O)N(C)[C@H](C(=O)N2CCCCC2)CC(=O)N1C [Compound 1798] ([NMeL]V[Sar][Sar][NMeCha][Sar][hPhe(3-Cl-4-CF3)]P[Ac5c][NMeChg][NMeD]-Piperidide; lactam N-11) | 1 | 50 to 100
CC[C@H](C)[C@@H]1NC(=O)[C@H](CC(C)C)N(C)C(=O)C[C@@H](C(=O)N2CCCCC2)N(C)C(=O)[C@H](C(C)C)N(C)C(=O)C2(CCCC2)NC(=O)[C@@H]2CCCN2C(=O)[C@H](CCc2ccc(C(F)(F)F)c(Cl)c2)NC(=O)CN(C)C(=O)[C@H](CC(C)C)N(C)C(=O)[C@@H]2CCN2C(=O)[C@H](C)N(C)C1=O [Compound 1803] ([NMeL]I[NMeA][Aze][NMeL][Sar][hPhe(3-Cl-4-CF3)]P[Ac5c][NMeV][NMeD]-Piperidide; lactam N-11) | 5.3 | 100 to 500
CC[C@H](C)[C@@H]1NC(=O)[C@H](CC(C)C)N(C)C(=O)C[C@@H](C(=O)N2CCCCC2)N(C)C(=O)[C@H](C2CCCCC2)N(C)C(=O)C2(CCCC2)NC(=O)[C@@H]2CCCN2C(=O)[C@H](CCc2ccc(C(F)(F)F)c(Cl)c2)NC(=O)CN(C)C(=O)[C@H](Cc2ccc(C)cc2)N(C)C(=O)CN(C)C(=O)CN(C)C1=O [Compound 1804] ([NMeL]I[Sar][Sar][NMePhe(4-Me)][Sar][hPhe(3-Cl-4-CF3)]P[Ac5c][NMeChg][NMeD]-Piperidide; lactam N-11) | 0.51 | 50 to 100
CC[C@H](C)[C@@H]1NC(=O)[C@H](C(C)C)N(C)C(=O)C[C@@H](C(=O)N2CCCCC2)N(C)C(=O)[C@H](C2CCCCC2)N(C)C(=O)C2(CCCC2)NC(=O)[C@@H]2CCCN2C(=O)[C@H](CCc2ccc(C(F)(F)F)c(Cl)c2)NC(=O)CN(C)C(=O)[C@H](CC2CCCCC2)N(C)C(=O)CN(C)C(=O)CN(C)C1=O [Compound 1807] ([NMeV]I[Sar][Sar][NMeCha][Sar][hPhe(3-Cl-4-CF3)]P[Ac5c][NMeChg][NMeD]-Piperidide; lactam N-11) | 0.89 | 50 to 100
